Measured values as given in article PMC12566971, “Polyprenylated Acylphloroglucinols from Hypericum rochelii and Hypericum olympicum—Cytotoxic Effects on Non-Tumorigenic Cell Lines and Antibacterial Potential” (Pharmaceuticals, 2025).
Values after ≈ are worked out from the molar mass of the structure shown. Values joined by “and” are separate entries in the source; they are usually repeats but may differ in a detail not shown here. Identical values can stand only once. Like-named read-outs stand apart in the source and are kept apart here.

Assays:
[1] = tested on: Methicillin-Resistant S. aureus (MRSA); conditions: ref [4],[29]; cited from earlier work
Streptococcus pyogenes = conditions: ref [4],[29]; cited from earlier work
MRSA biofilm = conditions: assessed and published previously, ref [29], cited from earlier work
HEK-293 cells = assay: Colony-forming unit assay; assay type: cell-based, human; conditions: for Percentage of colonies, HEK-293: untreated control = 100%
Protocol: The CFU was also performed according to ISO 10993-5 [56]. Briefly, the cell lines were seeded at a concentration like for the MTT assay in 6-well plates, treated with the chosen agents and left for a 48 h exposure. Then, the cells were trypsinized, and pre-calculated 20 to 100 µL from the cell suspension was added to a sterile Roswell Park Memorial Institute (RPMI) medium (RPMI-A, Capricorn Scientific), containing 20% of the respective cell culture medium for each cell line but with a final concentration of FBS and L-glutamine of 40–42% and 0.8–1.2 mM, respectively, 0.2% NaHCO3 (S6297, Merck Sigma-Aldrich, Saint Louis, MI, USA), and 0.8% methylcellulose (M0512, Merck Sigma-Aldrich) for viscosity. The viscous cell solution was vortexed for 10 s and dispensed in an equal number of cells per well in 6-well plates (1.2 mL per well) in triplicate for each concentration of treatment. HaCaT and HEK-293 were seeded at a concentration of 2500 cells per mL, CCL-1 and HEPG2—2000 cells per mL, and HGF—1000 cells per mL. The plates were incubated for 6 to 10 days, and when the colonies reached 20 to 50 cells per colony, 100 µL MTT salt solution was added to each well. After half an hour, the stained colonies were counted manually using a microscope.

CCL-1 cell line = assay: Live-cell imaging with Hoechst for apoptosis detection; assay type: cell-based; conditions: low MIC doses
Protocol: Cell suspension was seeded in the same manner as for MTT, but 50 µL per well in 96-well clear bottom plates. […] For the hypertonic buffer, the exposure time was 2 h, and the cells were plated at twice the concentration as for the MTT and cytopathic tests in order to comply with the kit protocol.
At least two wells were seeded as replicates, and at least two photographs were taken for all samples and treatments, stained with dyes or not.

In the case of CC(C)=CCCC1(C)C(CC=C(C)C)CC2C(=O)C1(C(=O)C(C)C)C(=O)C(CC=C(C)C)=C2O (stereo not shown) [Olympiforin B], the “MIC on bacteria, MRSA” value [1] is listed as 1 µg/mL (≈ 2.13 µM), the “MIC on bacteria, S. pyogenes” value (Streptococcus pyogenes) is listed as 4 µg/mL (≈ 8.53 µM) and the “Median Biofilm Inhibitory Concentration (MBIC50), MRSA” value (MRSA biofilm) is listed as 0.05 (0.03 to 0.07) µg/mL. For the same molecule, the “Minimum Biofilm Inhibitory Concentration (MBIC), MRSA” value (MRSA biofilm) was 0.5 (1/2 × MIC) µg/mL and 1.07 µM, the “Minimum Biofilm Inhibitory Concentration (MBIC), MRSA” value (MRSA biofilm; listed as olympiforin B) was 0.5 µg/mL and the IC50 (MRSA biofilm; read-out: Median Biofilm Inhibitory Concentration (MBIC50), MRSA) was 120 nM. The “Colonies per well for HEK-293 cells” value (HEK-293 cells; 1/2 × IC50, 48 h exposure) was 102, the “Percentage of colonies, HEK-293” value (HEK-293 cells; 1/2 × IC50) was 97% and the “Colonies per well for HEK-293 cells” value (HEK-293 cells; 2 × IC50, 48 h exposure) was 80. For the same molecule, the “Percentage of colonies, HEK-293” value (HEK-293 cells; 2 × IC50) was 77%, the “Colonies per well for HEK-293 cells” value (HEK-293 cells; IC50, 48 h exposure) was 99 and the “Percentage of colonies, HEK-293” value (HEK-293 cells; IC50) was 95%. The “Nuclear and DNA condensation (signs of apoptosis)” value (CCL-1 cell line) was “did not cause any nuclear and DNA condensation”.
